ChEMBL document CHEMBL1649248, “Two distinct major facilitator superfamily drug efflux pumps mediate chloramphenicol resistance in Streptomyces coelicolor” (2009)
≈ marks a conversion by molar mass, not a printed value. Peptide text beside a SMILES is read from it. * marks the point of attachment. βNA = c1ccc2cc(N*)ccc2c1

Key:
[1] = tested on: Streptomyces coelicolor; assay: Inhibition of MFS efflux pump in apramycin-resistant cmlR2 null mutant Streptomyces coelicolor assessed as reduction in chloramphenicol MIC at 25 ug/ml after 48 hrs relative to control
[2] = tested on: Streptomyces coelicolor; assay: Inhibition of MFS efflux pump in Streptomyces coelicolor assessed as reduction in chloramphenicol MIC at 25 ug/ml after 48 hrs relative to control
[3] = tested on: Streptomyces coelicolor; assay: Inhibition of MFS efflux pump in apramycin-resistant cmlR2 null mutant Streptomyces coelicolor assessed as reduction in chloramphenicol MIC at 75 ug/ml after 48 hrs relative to control
[4] = tested on: Streptomyces coelicolor; assay: Inhibition of MFS efflux pump in apramycin-resistant cmlR1 null mutant Streptomyces coelicolor assessed as reduction in chloramphenicol MIC at 25 ug/ml after 48 hrs relative to control
[5] = tested on: Streptomyces coelicolor; assay: Inhibition of MFS efflux pump in apramycin-resistant cmlR1 null mutant Streptomyces coelicolor assessed as reduction in chloramphenicol MIC at 50 ug/ml after 48 hrs relative to control
[6] = tested on: Streptomyces coelicolor; assay: Inhibition of MFS efflux pump in apramycin-resistant cmlR2 null mutant Streptomyces coelicolor assessed as reduction in chloramphenicol MIC at 50 ug/ml after 48 hrs relative to control
[7] = tested on: Streptomyces coelicolor; assay: Inhibition of MFS efflux pump in Streptomyces coelicolor assessed as reduction in chloramphenicol MIC at 75 ug/ml after 48 hrs relative to control
[8] = tested on: Streptomyces coelicolor; assay: Inhibition of MFS efflux pump in apramycin-resistant cmlR2 null mutant Streptomyces coelicolor assessed as reduction in chloramphenicol MIC at 10 ug/ml after 48 hrs relative to control
[9] = tested on: Streptomyces coelicolor; assay: Inhibition of MFS efflux pump in Streptomyces coelicolor assessed as reduction in chloramphenicol MIC at 10 ug/ml after 48 hrs relative to control
[10] = tested on: Streptomyces coelicolor; assay: Inhibition of MFS efflux pump in Streptomyces coelicolor assessed as reduction in chloramphenicol MIC at 50 ug/ml after 48 hrs relative to control
[11] = tested on: Streptomyces coelicolor; assay: Inhibition of MFS efflux pump in apramycin-resistant cmlR1 null mutant Streptomyces coelicolor assessed as reduction in chloramphenicol MIC at 10 ug/ml after 48 hrs relative to control
[12] = tested on: Streptomyces coelicolor; assay: Inhibition of MFS efflux pump in apramycin-resistant cmlR1 null mutant Streptomyces coelicolor assessed as reduction in chloramphenicol MIC at 75 ug/ml after 48 hrs relative to control
[13] = tested on: Streptomyces coelicolor; assay: Antimicrobial activity against apramycin-resistant cmlR1 null mutant Streptomyces coelicolor B754 after 48 hrs relative to wild type; assay type: functional
[14] = tested on: Streptomyces coelicolor; assay: Antimicrobial activity against Streptomyces coelicolor B759 overexpressing cmlR2 after 48 hrs relative to wild type; assay type: functional
[15] = tested on: Streptomyces coelicolor; assay: Antimicrobial activity against apramycin-resistant cmlR2 null mutant Streptomyces coelicolor B756 after 48 hrs relative to wild type; assay type: functional
[16] = tested on: Streptomyces coelicolor; assay: Antimicrobial activity against Streptomyces coelicolor B758 overexpressing cmlR1 after 48 hrs relative to wild type; assay type: functional
[17] = tested on: Streptomyces coelicolor; assay: Antimicrobial activity against Streptomyces coelicolor after 48 hrs; assay type: functional

Structure (SMILES): COC(=O)[C@H]1[C@H]2C[C@@H]3c4[nH]c5cc(OC)ccc5c4CCN3C[C@H]2C[C@@H](OC(=O)c2cc(OC)c(OC)c(OC)c2)[C@@H]1OC
- fold change (FC) [1]: 2
- fold change (FC) [2]: 2.7
- fold change (FC) [3]: 2
- fold change (FC) [4]: 2.5
- fold change (FC) [5]: 3.3
- fold change (FC) [6]: 2
- fold change (FC) [7]: 4
- fold change (FC) [8]: 1.3
- fold change (FC) [9]: 1.3
- fold change (FC) [10]: 4
- fold change (FC) [11]: 2.5
- fold change (FC) [12]: 3.3

Structure (SMILES): O=C(N[C@H](CO)[C@H](O)c1ccc([N+](=O)[O-])cc1)C(Cl)Cl [CHLORAMPHENICOL]
- fold change (FC) [13]: 1.6
- fold change (FC) [14]: 4
- fold change (FC) [15]: 16
- fold change (FC) [16]: 2

Structure (SMILES): CS(=O)(=O)c1ccc([C@@H](O)[C@@H](CF)NC(=O)C(Cl)Cl)cc1 [FLORFENICOL]
- fold change (FC) [13]: 1.8
- fold change (FC) [15]: 3

Structure (SMILES): N=C(N)NCCC[C@H](NC(=O)[C@@H](N)Cc1ccccc1)C(=O)Nc1ccc2ccccc2c1 [PABETAN] (H-Phe-Arg-βNA)
- fold change (FC) [1]: 1.7
- fold change (FC) [2]: 3.2
- fold change (FC) [3]: 1.7
- fold change (FC) [4]: 3.3
- fold change (FC) [5]: 3.3
- fold change (FC) [6]: 1.7
- fold change (FC) [7]: 8
- fold change (FC) [8]: 1.7
- fold change (FC) [9]: 2.7
- MIC [17]: 200 µg/mL (≈ 448 µM)
- fold change (FC) [10]: 4
- fold change (FC) [11]: 2.5
- fold change (FC) [12]: 5

Structure (SMILES): CS(=O)(=O)c1ccc([C@@H](O)[C@@H](CO)NC(=O)C(Cl)Cl)cc1 [THIAMPHENICOL]
- fold change (FC) [15]: >10
